Source: patent publication US6998423B2, “Prevention of loss and restoration of bone mass by certain prostaglandin agonists” (priority 1996, dated 2006)

System: Bone Morphogenetic Protein 7 (BMP-7) expression in EP2 293S cells
Test: Induction of BMP-7 expression (Northern blot) in 293S cells transfected with the EP2 receptor
Format: cell-based, human
Conditions: 10^−6M, RNA extracted at 8, 16 and 24 hours, Northern blot with 32P-labeled BMP-7 probe
Method: Methods: 293S and EP2 293S cells were grown in Dulbecco's Modified Egale medium (DMEM, Gibco, BRL; Gaithersburg, Md.). One day prior to treatment with PGE2or a prostaglandin agonist, cells were plated at a density of 1.5×10^6 cells /10 cm dish. […] Cells were harvested and RNA extracted at 8, 16 and 24 hours. Northern blot analysis of total ([…] ) was carried out by probing the blots with ^32P-labeled BMP-7 probe. The blots were normalized for RNA loading by hybridization with ^32P-labeled 18s ribosomal RNA probe. […] Given the known role of BMP-7 in kidney regeneration and the ability of a prostaglandin agonist to induce BMP-7 expression in 293S kidney cells in a time and receptor specific manner indicates a role for a prostaglandin agonist in kidney regeneration.

CCCCC[C@H](O)/C=C/[C@H]1[C@H](O)CC(=O)[C@@H]1C/C=C\CCCC(=O)O [PGE2, prostaglandin E2]
induction of the expression of BMP-7: in a time dependent manner induce the expression of BMP-7
